Assay results taken from patent publication US11969412B2, “Methods and compounds for the treatment or prevention of hypercytokinemia and severe influenza” (Poolbeg Pharma (UK) Limited, priority 2017, dated 2024).
Read-outs that look alike come from different tables or passages of the source.

Key:
[1] = tested on: immune cells (PBMCs plus granulocytes stimulated with A549 viral soup); experiment: cells; type: cell-based, human
[2] = tested on: endothelial cells (HUVECs); experiment: cells; type: cell-based, human
influenza virus = settings: cited from earlier work; for survival rate at Day 20 of infection: controls 14%
p38MAPK [3] = experiment: Western blotting of p38MAPK and HSP27 phosphorylation in A549 cells after A549 viral soup; type: cell-based, human; settings: western blot
Procedure: In vitro data were generated from A549 cells to test the effect of A549 viral soup application on p38 activation as measured by western blotting of the phosphorylation status of p38MAPK itself and downstream signalling target, HSP27. For western blotting confluent cells were washed in PBS and lysed in RIPA with protease inhibitor (Sigma-P8340), phosphatase inhibitor cocktails 2 and 3 (Sigma P5726 and P0044) and phosphatase inhibitors Na3VO4 and NaF on ice. Protein concentrations were determined using the Pierce BCA Protein Assay Kit and equal concentrations of each sample created in 4× Laemmli sample buffer (BIO-RAD 161-0747) with 2-mercaptoethanol. Samples were run on a 12% gel and then transferred on to nitrocellulose. Membranes were blocked using 5% milk powder, then hybridised with p38 MAPK rabbit antibody (Cell Signalling Technologies, cat. no. 9212S) and phosphorylated p38 MAPK rabbit antibody (Cell Signalling Technologies, cat. no. 9211S), or HSP27 antibody (Cell signalling Technologies, cat. no. 2402) and phospho-HSP27 antibody (Cell signalling Technologies, cat. no. 9709). Secondary antibodies were anti-rabbit HRP (Cell signalling Technologies catalogue no. CS7074P2) and anti-mouse HRP (Cell signalling, catalogue no. 7076S), respectively. Membranes were stripped for re-probing using Restore™ PLUS Western Blot Stripping Buffer (Life technologies #46430). […]

immune cells (PBMCs) = type: cell-based, human
p38MAPK [4] = experiment: Western blotting of HSP27 phosphorylation in HUVEC cells after HBEC viral soup; type: cell-based, human; settings: pre-incubation, western blot
Procedure: For western blotting confluent cells were washed in PBS and lysed in RIPA with protease inhibitor (Sigma-P8340), phosphatase inhibitor cocktails 2 and 3 (Sigma P5726 and P0044) and phosphatase inhibitors Na3VO4 and NaF on ice. […] The membranes were treated with Amersham ECL Prime Western Blotting Detection Reagent (GE/Amersham #RPN2232) and imaged using ChemiDoc™ Touch Imaging System (BIORAD). Analysis was performed using the Image Lab software.
In vitro data were generated from HUVEC cells to test the effect of HBEC viral soup application on p38 activation as measured by western blotting of the phosphorylation status of the p38MAPK downstream signalling target, HSP27.

p38MAPK [5] = experiment: Western blotting of HSP27 phosphorylation in immune cells (PBMCs) after A549 viral soup; type: cell-based, human; settings: pre-incubation, western blot
HBEC cells = experiment: Inflammatory mediator production in HBEC cells after HBEC viral soup (MSD analysis); type: cell-based, human; settings: HBECs treated prior to HBEC viral soup
[6] = Homo sapiens, A549, read-out: IC50 IL1B
[7] = Homo sapiens, A549, read-out: IC50 IL6
[8] = Homo sapiens, A549, read-out: IC50 IL8
[9] = Homo sapiens, A549, read-out: IC50 TNFa
[10] = Homo sapiens, HUVEC, read-out: IC50 IL10

Nc1ccc2ncnc(NCCc3ccc(Oc4ccccc4)cc3)c2c1 [QNZ (EVP4593)]
iMax IL8 [1]: 47%
iMax TNFa [1]: 37%
IC50 ([1]; read-out: IC50 IL8): 0.2 nM
IC50 ([1]; read-out: IC50 TNFa): 43.6 nM
iMax IL8 [2]: 60%
iMax IL10 [2]: 72%
iMax MCP1 [2]: 44%
IC50 ([2]; read-out: IC50 IL8): 6.5 nM
IC50 ([2]; read-out: IC50 IL10): 3.3 nM
IC50 ([2]; read-out: IC50 MCP1): 3.84 nM

Selumetinib
dose-dependent inhibition of IP10 production [2]: Neither Refametinib nor Selumetinib showed dose-dependent inhibition
levels of IP10 at higher drug concentrations [2]: appeared to increase

CC[C@H]1OC(=O)[C@H](C)[C@@H](O[C@H]2C[C@@](C)(OC)[C@@H](O)[C@H](C)O2)[C@H](C)[C@@H](O[C@@H]2O[C@H](C)C[C@H](N(C)C)[C@H]2O)[C@](C)(O)C[C@@H](C)C(=O)[C@H](C)[C@@H](O)[C@]1(C)O [EM]
survival rate at Day 20 of infection (influenza virus; 1.0 mg/kg/d): 42%
survival rate of mice infected with influenza virus (influenza virus; 3.3 mg/kg/d intraperitoneally, Days 1-6 after infection): significantly improved
survival rate at Day 20 of infection (influenza virus; 3.3 mg/kg/d): 57%

C[C@H]1C[C@@H]2[C@H]([C@@H](O)C[C@@]3(C)[C@H]2CC[C@]3(O)C(=O)CO)[C@@]2(C)C=CC(=O)C=C12 [Methyl Prednisolone]
iMax IL1B [1]: 77%
iMax IL6 [1]: 57%
iMax IL8 [1]: 90%
iMax TNFa [1]: 79%
IC50 [1, 6]: 8.4 nM
IC50 [1, 7]: 36.6 nM
IC50 [1, 8]: 8.4 nM
IC50 [1, 9]: 20.2 nM

CNC(=O)c1ccc(C)c(-n2c(C)cc(OCc3ccc(F)cc3F)c(Br)c2=O)c1 [PH797804]
iMax IL1B [1]: 79%
iMax IL8 [1]: 87%
iMax TNFa [1]: 91%
IC50 [1, 6]: 9.7 nM
IC50 [1, 8]: 2.3 nM
IC50 [1, 9]: 3.9 nM
iMax IL8 [2]: 86%
iMax IL10 [2]: 88%
iMax MCP1 [2]: 36%
IC50 ([2]; Homo sapiens, HUVEC, read-out: IC50 IL8): 28.9 nM
IC50 [2, 10]: 7.5 nM
IC50 ([2]; Homo sapiens, HUVEC, read-out: IC50 MCP1): 13.1 nM
induction of both p38MAPK and HSP27 phosphorylation (p38MAPK [3]): dose dependently inhibit
A549 viral soup induced release of TNFα, IL-1-β, IL-6 and CXCL8 (immune cells (PBMCs)): significantly attenuate

CC[C@H]1OC(=O)[C@H](C)[C@@H](O[C@H]2C[C@@](C)(OC)[C@@H](O)[C@H](C)O2)[C@H](C)[C@@H](O[C@@H]2O[C@H](C)C[C@H](N(C)C)[C@H]2O)[C@](C)(O)C[C@@H](C)CN(C)[C@H](C)[C@@H](O)[C@]1(C)O [Azithromycin]
iMax IL1B [1]: 50%
iMax IL6 [1]: 45%
iMax IL8 [1]: 46%
iMax TNFa [1]: 63%
IC50 [1, 6]: 0.5 nM
IC50 [1, 7]: 119 nM
IC50 [1, 8]: 0.8 nM
IC50 [1, 9]: 86.9 nM

COc1cc(F)c(F)c(Nc2ccc(I)cc2F)c1NS(=O)(=O)C1(C[C@H](O)CO)CC1 [Refametinib]
dose-dependent inhibition of IP10 production [2]: Neither Refametinib nor Selumetinib showed dose-dependent inhibition
levels of IP10 at higher drug concentrations [2]: appeared to increase

OCCCn1cc2c(-c3ccc(F)cc3)c(-c3ccncc3)c(-c3ccc(F)cc3)nc2n1 [Formula II]
attenuating the inflammatory response in endothelial cells, compared with Formula III [2]: consistently better effects than the compound of Formula III
production of IL-8 and IP-10 [2]: attenuate
attenuating the inflammatory response in immune cells, compared with Formula III (immune cells (PBMCs)): consistently better effects than the compound of Formula III
production of MIP-1a and IL-8 (TNFa plus IL-6 as stimulus) and TNFa and IL-8 (A549 virus soup as stimulus) (immune cells (PBMCs)): attenuate

CCc1ccc(CCOc2ccc(CC3SC(=O)NC3=O)cc2)nc1 (centres unmarked) [Pioglitazone]
iMax IL6 [1]: 41%
iMax IL8 [1]: 37%
IC50 [1, 7]: 0.02 nM
IC50 [1, 8]: 0.1 nM

Cc1cc(F)ccc1-c1nc(NC(CO)CO)nc2c1ccc(=O)n2-c1c(F)cccc1F [Dilmapimod]
induction of both p38MAPK and HSP27 phosphorylation (p38MAPK [3]): dose dependently inhibit
induction of HSP27 phosphorylation (p38MAPK [4]): dose dependently inhibit
induction of HSP27 phosphorylation (p38MAPK [5]): dose dependently inhibit
A549 viral soup induced release of TNFα, IL-1-β, IL-6 and CXCL8 (immune cells (PBMCs)): significantly attenuate

CC[C@H](C)C(=O)O[C@H]1C[C@H](O)C=C2C=C[C@H](C)[C@H](CC[C@@H](O)C[C@@H](O)CC(=O)O)[C@H]21 [Pravastatin]
iMax IL10 [2]: 35%
IC50 [2, 10]: 78 nM

O=C(Nc1c(Cl)cncc1Cl)c1ccc(OC(F)F)c(OCC2CC2)c1 [Roflumilast]
iMax IL8 [1]: 31%
iMax TNFa [1]: 74%
IC50 [1, 8]: 0.09 nM
IC50 [1, 9]: 10.8 nM

Cn1cc2c(-c3ccc(F)cc3)c(-c3ccncc3)c(-c3ccc(F)cc3)nc2n1 [Formula III]
production of IL-8 and IP-10 [2]: attenuate
production of TNFα and IL-8 (immune cells (PBMCs)): attenuate
release of IL-6 and IP-10 (HBEC cells): attenuated
